Experiments:
[1] = 101 kPa, Liquid
[2] = xn = mol fraction of the nth substance listed; conditions: 101 kPa, Liquid

CCO [ethanol]
[1]
Conditions | mass density [kg/m3] | viscosity [mPa·s]
303.15 K | 783.4 | 1.086
308.15 K | 779 | 0.9732
313.15 K | 774.6 | 0.8596
318.15 K | 769.8 | 0.8284
323.15 K | 766.1 | 0.7493

C[S+](C)[O-] [dimethyl sulfoxide] + CCO
[2]
Conditions | mass density, 303.15 K [kg/m3] | mass density, 308.15 K [kg/m3] | mass density, 313.15 K [kg/m3] | mass density, 318.15 K [kg/m3] | mass density, 323.15 K [kg/m3] | viscosity, 303.15 K [mPa·s] | viscosity, 308.15 K [mPa·s] | viscosity, 313.15 K [mPa·s] | viscosity, 318.15 K [mPa·s] | viscosity, 323.15 K [mPa·s]
x1 = 0.1008 | 836 | 831.6 | 827.6 | 822.8 | 818.1 | 1.244 | 1.122 | 1.025 | 0.9261 | 0.8551
x1 = 0.2004 | 870.1 | 865.6 | 861.7 | 856.7 | 852.1 | 1.205 | 1.096 | 0.9964 | 0.9126 | 0.8356
x1 = 0.2994 | 902.4 | 897.7 | 894 | 888.8 | 884 | 1.209 | 1.098 | 1.01 | 0.9262 | 0.8544
x1 = 0.4005 | 933.9 | 929 | 925.6 | 920.1 | 915.3 | 1.237 | 1.143 | 1.038 | 0.961 | 0.8876
x1 = 0.4995 | 963.3 | 958.2 | 955 | 949.2 | 944.4 | 1.282 | 1.179 | 1.086 | 1.004 | 0.9264
x1 = 0.6005 | 991.6 | 986.3 | 983.4 | 977.4 | 972.4 | 1.361 | 1.248 | 1.154 | 1.065 | 0.9847
x1 = 0.7012 | 1018.4 | 1013 | 1010.3 | 1004.1 | 999.3 | 1.464 | 1.34 | 1.234 | 1.139 | 1.05
x1 = 0.8011 | 1043.6 | 1038.3 | 1035.9 | 1029.5 | 1024.7 | 1.557 | 1.435 | 1.323 | 1.217 | 1.125
x1 = 0.8999 | 1067.5 | 1062.1 | 1059.8 | 1053.1 | 1048.4 | 1.658 | 1.517 | 1.393 | 1.289 | 1.183
x1 = 1 | 1090.7 | 1084.7 | 1082.3 | 1075.1 | 1070 | 1.832 | 1.67 | 1.537 | 1.408 | 1.289

CO [methanol]
[1]
Conditions | mass density [kg/m3] | viscosity [mPa·s]
303.15 K | 781.3 | 0.5178
308.15 K | 778.2 | 0.4843
313.15 K | 772.4 | 0.4515
318.15 K | 767.8 | 0.4233
323.15 K | 762.7 | 0.395

C[S+](C)[O-] [dimethyl sulfoxide] + CCCO
[2]
Conditions | mass density, 303.15 K [kg/m3] | mass density, 308.15 K [kg/m3] | mass density, 313.15 K [kg/m3] | mass density, 318.15 K [kg/m3] | mass density, 323.15 K [kg/m3] | viscosity, 303.15 K [mPa·s] | viscosity, 308.15 K [mPa·s] | viscosity, 313.15 K [mPa·s] | viscosity, 318.15 K [mPa·s] | viscosity, 323.15 K [mPa·s]
x1 = 0.1003 | 824.3 | 820.3 | 816.5 | 812.7 | 808.9 | 1.598 | 1.436 | 1.257 | 1.142 | 1.034
x1 = 0.1995 | 853.1 | 848.6 | 844.8 | 840.8 | 836.8 | 1.41 | 1.278 | 1.163 | 1.066 | 0.9724
x1 = 0.2999 | 881.4 | 876.6 | 873.2 | 868.7 | 864.8 | 1.402 | 1.277 | 1.173 | 1.078 | 0.9878
x1 = 0.3994 | 910.1 | 905.3 | 901.7 | 897.1 | 892.9 | 1.393 | 1.273 | 1.17 | 1.084 | 0.9964
x1 = 0.5 | 938.7 | 933.4 | 929.7 | 924.3 | 919.7 | 1.425 | 1.31 | 1.207 | 1.11 | 1.017
x1 = 0.5995 | 968.1 | 962.5 | 958.8 | 953.2 | 948.6 | 1.492 | 1.357 | 1.246 | 1.148 | 1.07
x1 = 0.7002 | 998.2 | 992.2 | 988.8 | 982.3 | 977.6 | 1.532 | 1.4 | 1.29 | 1.201 | 1.1
x1 = 0.7998 | 1027.6 | 1021.6 | 1017.5 | 1011 | 1006.1 | 1.593 | 1.452 | 1.335 | 1.247 | 1.14
x1 = 0.9004 | 1059.4 | 1053 | 1050 | 1043 | 1037.6 | 1.728 | 1.629 | 1.493 | 1.361 | 1.219
x1 = 1 | 1090.7 | 1084.7 | 1082.3 | 1075.1 | 1070 | 1.832 | 1.67 | 1.537 | 1.408 | 1.289

CCCO [propan-1-ol] + C[S+](C)[O-]
[2], x2 = 0
Conditions | mass density [kg/m3] | viscosity [mPa·s]
303.15 K | 795.5 | 1.733
308.15 K | 791.1 | 1.534
313.15 K | 787 | 1.367
318.15 K | 783.3 | 1.234
323.15 K | 779.5 | 1.1

CO [methanol] + C[S+](C)[O-]
[2], x2 = 0
Conditions | mass density [kg/m3] | viscosity [mPa·s]
303.15 K | 781.3 | 0.5178
308.15 K | 778.2 | 0.4843
313.15 K | 772.4 | 0.4515
318.15 K | 767.8 | 0.4233
323.15 K | 762.7 | 0.395

C[S+](C)[O-] [dimethyl sulfoxide] + CC(C)O
[2]
Conditions | mass density, 303.15 K [kg/m3] | mass density, 308.15 K [kg/m3] | mass density, 313.15 K [kg/m3] | mass density, 318.15 K [kg/m3] | mass density, 323.15 K [kg/m3] | viscosity, 303.15 K [mPa·s] | viscosity, 308.15 K [mPa·s] | viscosity, 313.15 K [mPa·s] | viscosity, 318.15 K [mPa·s] | viscosity, 323.15 K [mPa·s]
x1 = 0.1001 | 806.4 | 802.2 | 798.2 | 793.2 | 787.9 | 1.525 | 1.352 | 1.2 | 1.078 | 0.9656
x1 = 0.2011 | 834.9 | 830.4 | 826 | 820.7 | 815.3 | 1.391 | 1.246 | 1.118 | 1.01 | 0.9102
x1 = 0.3005 | 865 | 860.4 | 856.3 | 850.6 | 845.2 | 1.306 | 1.18 | 1.078 | 0.9836 | 0.8887
x1 = 0.4007 | 895.8 | 891 | 887.1 | 881.3 | 875.8 | 1.335 | 1.209 | 1.103 | 1.011 | 0.9133
x1 = 0.4994 | 926.6 | 921.6 | 917.9 | 911.9 | 906.5 | 1.341 | 1.223 | 1.124 | 1.036 | 0.9383
x1 = 0.601 | 958.9 | 953.7 | 950 | 943.8 | 938.5 | 1.396 | 1.274 | 1.173 | 1.08 | 0.9843
x1 = 0.701 | 991.1 | 985.6 | 982.2 | 975.7 | 970.4 | 1.474 | 1.343 | 1.233 | 1.136 | 1.041
x1 = 0.7994 | 1023.3 | 1017.6 | 1014.5 | 1007.6 | 1002.3 | 1.55 | 1.41 | 1.31 | 1.198 | 1.108
x1 = 0.9005 | 1056.9 | 1051 | 1048.2 | 1041 | 1035.8 | 1.671 | 1.516 | 1.401 | 1.285 | 1.171
x1 = 1 | 1090.7 | 1084.7 | 1082.3 | 1075.1 | 1070 | 1.832 | 1.67 | 1.537 | 1.408 | 1.289

CC(C)O [propan-2-ol] + C[S+](C)[O-]
[2], x2 = 0
Conditions | mass density [kg/m3] | viscosity [mPa·s]
303.15 K | 776.4 | 1.792
308.15 K | 772.6 | 1.553
313.15 K | 768.6 | 1.355
318.15 K | 763.9 | 1.182
323.15 K | 758.8 | 1.041

C[S+](C)[O-] [dimethyl sulfoxide] + CO
[2]
Conditions | mass density, 303.15 K [kg/m3] | mass density, 308.15 K [kg/m3] | mass density, 313.15 K [kg/m3] | mass density, 318.15 K [kg/m3] | mass density, 323.15 K [kg/m3] | viscosity, 303.15 K [mPa·s] | viscosity, 308.15 K [mPa·s] | viscosity, 313.15 K [mPa·s] | viscosity, 318.15 K [mPa·s] | viscosity, 323.15 K [mPa·s]
x1 = 0.0998 | 837.8 | 834.7 | 829.9 | 825.2 | 820.4 | 0.5976 | 0.5587 | 0.5228 | 0.4918 | 0.4582
x1 = 0.2004 | 886 | 882.3 | 877.3 | 872.2 | 867.1 | 0.678 | 0.6322 | 0.591 | 0.5532 | 0.5163
x1 = 0.3007 | 925 | 921 | 916.3 | 910.8 | 905.7 | 0.7684 | 0.7147 | 0.6694 | 0.6281 | 0.5857
x1 = 0.3998 | 959.3 | 955 | 950.7 | 944.7 | 939.6 | 0.8719 | 0.8091 | 0.7576 | 0.7073 | 0.6605
x1 = 0.4996 | 988.4 | 983.6 | 979.6 | 973.3 | 968.4 | 0.9887 | 0.9164 | 0.8549 | 0.7972 | 0.7426
x1 = 0.6008 | 1013.9 | 1009 | 1005.6 | 999.4 | 994.4 | 1.123 | 1.037 | 0.9676 | 0.9008 | 0.8357
x1 = 0.699 | 1035.3 | 1030.1 | 1026.9 | 1020.9 | 1016 | 1.272 | 1.172 | 1.09 | 1.012 | 0.9359
x1 = 0.8011 | 1055.5 | 1050.3 | 1047.7 | 1040.9 | 1036.3 | 1.442 | 1.326 | 1.226 | 1.131 | 1.045
x1 = 0.8997 | 1073.7 | 1068.3 | 1065.8 | 1059 | 1054 | 1.629 | 1.492 | 1.379 | 1.269 | 1.167
x1 = 1 | 1090.7 | 1084.7 | 1082.3 | 1075.1 | 1070.1 | 1.832 | 1.67 | 1.537 | 1.408 | 1.289

CCO [ethanol] + C[S+](C)[O-]
[2], x2 = 0
Conditions | mass density [kg/m3] | viscosity [mPa·s]
303.15 K | 783.4 | 1.086
308.15 K | 779 | 0.9732
313.15 K | 774.6 | 0.8596
318.15 K | 769.8 | 0.8284
323.15 K | 766.1 | 0.7493
